In patent US6541468B1, “Indolocarbazole derivatives useful for the treatment of neurodegenerative diseases and cancer” (Bayer Corporation, priority 1998, dated 2003):

Target: T1, PKA (Bos taurus, UniProt P00517)
T1 construct: The catalytic subunit of bovine heart PKA was obtained commercially from Sigma; purchased Sigma; host or cells: bovine heart
Test: PKA catalytic subunit inhibition assay
Assay type: biochemical, bovine
Details: footnote a) on the CII value: partial inhibition only
Protocol: Preparation of cAMP-dependent Kinase: The catalytic subunit of bovine heart PKA was obtained commercially from Sigma.
The catalytic subunit of PKA was assayed in 50 μl 25 mM HEPES, pH 7.0, 10 mM MgCl2, 1 mM EDTA, 1 mM DTT, using 70 ng PKA and 0.1 mg/mL human recombinant tau protein as a substrate.
Enzyme, substrate and inhibitor were preincubated for 5-10 min at 4° C. in assay buffers containing a final concentration of 2% DMSO before initiating the reaction with 0.25 mM γ^2P-ATP. Samples were incubated for 30 min at 37° C. and reactions were terminated with 10% trichloracetic acid/2% sodium pyrophosphate (TCA/PPA), followed by filtration over a glass fiber filtermat (type A) with a cell harvester (Tomtec). The filtermats were washed twice for several hours with TCA/PPA until all background radioactivity was removed. Precipitable counts were quantitated directly on the filtermat with a microbeta scintillation counter system (Wallac-Pharmacia). Inhibitor data were subjected to curve fitting and IC50 values were calculated from these curves using the GraphIt program.

Structure (SMILES) | IC50 [nM]
COC(=O)[C@@]1(O)C[C@H]2C[C@@H]1n1c3ccccc3c3c4c(c5c6ccccc6n2c5c31)C(=O)NC4=O (relative stereo) [CIII, 9,12-Methano-1H-diindolo[1,2,3-fg:3′,2′,1′-kl]pyrrolo[3,4-I][1,6] benzodiazocine-10-carboxylic acid, 2,3,9,10,11,12-hexahydro-10-hydroxy-1,3-dioxomethyl ester, (9α,10β,12α)] | > 100000
CNC(=O)[C@]1(O)CC2CC1n1c3ccccc3c3c4c(c5c6ccccc6n2c5c31)C(=O)NC4=O (stereo partly drawn) [CII, 9,12-Methano-1H-diindolo[1,2,3-fg:3′,2′,1′-kl]pyrrolo[3,4-I][1,6] benzodiazocine-10-carboxamide, 2,3,9,10,11,12-hexahydro-10-hydroxy-N-methyl-1,3-dioxo-(9α,10β,12α)] | 650
